Reference: patent publication US7932262B2 (Novartis AG, priority 2006, dated 2011)

How the values were obtained:
A2780 cells = assay: Cell Proliferation Assay (Cell Titer Glo), A2780; format: cell-based; conditions: Homo sapiens; cell proliferation, A2780 cells; read-out: CPEC50 A2780
Procedure, shortened: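 Cells seeded at 1000/well, allowed to adhere 3-5 h, then exposed to DMSO-dissolved compounds for 3 days at 37° C., 5% CO2. Medium replaced before Cell Titer Glo addition; luminescence read after 10 min.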

PDK1 kinase = target: T1, PDK1 kinase (Homo sapiens, UniProt O15530); assay: PDK1 Kinase Alpha Screen Assay; format: biochemical; conditions: PDK1 Kinase Alpha Screen Assay; read-out: PDK1 IC50
T1 sequence (O15530 1-556): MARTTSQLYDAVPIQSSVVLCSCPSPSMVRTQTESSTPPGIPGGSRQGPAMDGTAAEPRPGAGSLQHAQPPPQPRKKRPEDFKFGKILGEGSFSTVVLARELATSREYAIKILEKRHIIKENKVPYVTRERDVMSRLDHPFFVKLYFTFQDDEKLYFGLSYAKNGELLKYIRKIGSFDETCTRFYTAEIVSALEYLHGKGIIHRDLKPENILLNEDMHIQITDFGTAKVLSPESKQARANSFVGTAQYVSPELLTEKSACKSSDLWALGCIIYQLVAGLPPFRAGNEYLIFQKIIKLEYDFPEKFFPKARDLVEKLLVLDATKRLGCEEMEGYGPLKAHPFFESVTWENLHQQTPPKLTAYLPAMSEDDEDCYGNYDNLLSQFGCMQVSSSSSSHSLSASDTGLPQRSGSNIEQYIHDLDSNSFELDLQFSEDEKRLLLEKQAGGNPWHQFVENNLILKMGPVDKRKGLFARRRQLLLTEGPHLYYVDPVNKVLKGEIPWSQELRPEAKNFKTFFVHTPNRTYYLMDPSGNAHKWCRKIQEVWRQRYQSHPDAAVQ
Procedure, shortened: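 Biotinylated PDK1-4 peptide (50 nM) phosphorylated by PDK1 with 10 uM ATP in pH 7.5 Tris/MgCl2/DTT buffer, 2.5% DMSO, for 3-18 hours. EDTA stop, then AlphaScreen detection with phospho-(Ser/Thr) PKA substrate antibody and protein A/streptavidin beads after overnight room-temperature development.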

Structure (SMILES) | EC50 (A2780 cells) | IC50 (PDK1 kinase)
NS(=O)(=O)c1ccc(Nc2ncc3ccc(-c4ncco4)c(OC4CCNCC4)c3n2)cc1 [Compound 861, 4-(7-(oxazol-2-yl)-8-(piperidin-4-yloxy)quinazolin-2-ylamino)benzenesulfonamide] | < 5 µM | < 5 µM
NS(=O)(=O)c1ccc(Nc2ncc3ccc(-c4nccs4)c(OC4CCNCC4)c3n2)cc1 [Compound 862, 4-(8-(piperidin-4-yloxy)-7-(thiazol-2-yl)quinazolin-2-ylamino)benzenesulfonamide] | < 5 µM | < 5 µM
NS(=O)(=O)c1ccc(Nc2ncc3ccc(-c4ccccn4)c(OC4CCNCC4)c3n2)cc1 [Compound 863, 4-(8-(piperidin-4-yloxy)-7-(pyridin-2-yl)quinazolin-2-ylamino)benzenesulfonamide] | < 5 µM | < 5 µM
N#Cc1ccc2cnc(Nc3ccc(S(N)(=O)=O)cc3)nc2c1OC1CCNCC1 [Compound 864, 4-(7-cyano-8-(piperidin-4-yloxy)quinazolin-2-ylamino)benzenesulfonamide] | < 5 µM | < 5 µM
Cc1n[nH]c(C)c1-c1ccc2cnc(Nc3ccc(S(N)(=O)=O)cc3)nc2c1 [Compound 865, 4-(7-(3,5-dimethyl-1H-pyrazol-4-yl)quinazolin-2-ylamino)benzenesulfonamide] | < 5 µM | < 5 µM
NS(=O)(=O)c1ccc(Nc2ncc3ccc(-c4cnoc4)cc3n2)cc1 [Compound 866, 4-(7-(isoxazol-4-yl)quinazolin-2-ylamino)benzenesulfonamide] | < 5 µM | < 5 µM
Cc1noc(C)c1-c1ccc2cnc(Nc3ccc(S(N)(=O)=O)cc3)nc2c1 [Compound 867, 4-(7-(3,5-dimethylisoxazol-4-yl)quinazolin-2-ylamino)benzenesulfonamide] | < 5 µM | < 5 µM
O=S(=O)(c1ccc(Nc2ncc3ccc(-c4cn[nH]c4)cc3n2)cc1)N1CCOCC1 [Compound 868, N-(4-(morpholinosulfonyl)phenyl)-7-(1H-pyrazol-4-yl)quinazolin-2-amine] | < 5 µM | < 5 µM
CN1CCC(c2c(O)ccc3cnc(Nc4ccc(S(N)(=O)=O)cc4)nc23)CC1 [Compound 870, 4-(7-hydroxy-8-(1-methylpiperidin-4-yl)quinazolin-2-ylamino)benzenesulfonamide] | < 5 µM | < 5 µM
CN1CCN(Cc2cccc3cnc(Nc4ccc(S(N)(=O)=O)cc4)nc23)CC1 [Compound 871, 4-(8-((4-methylpiperazin-1-yl)methyl)quinazolin-2-ylamino)benzenesulfonamide] | < 5 µM | < 5 µM
NS(=O)(=O)c1ccc(Nc2ncc3cccc(CN4CCOCC4)c3n2)cc1 [Compound 872, 4-(8-(morpholinomethyl)quinazolin-2-ylamino)benzenesulfonamide] | < 5 µM | < 5 µM
NS(=O)(=O)c1ccc(Nc2ncc3cccc(Nc4ccc(F)cc4)c3n2)cc1 [Compound 873, 4-(8-(4-fluorophenylamino)quinazolin-2-ylamino)benzenesulfonamide] | < 5 µM | < 5 µM
CC(C)N1CCC(Oc2ccc3cnc(Nc4ccc(S(=O)(=O)N5CCOCC5)cc4)nc3c2)CC1 [Compound 874, 7-(1-isopropylpiperidin-4-yloxy)-N-(4-(morpholinosulfonyl)phenyl)quinazolin-2-amine] | < 5 µM | < 5 µM
NS(=O)(=O)c1ccc(Nc2ncc3ccc(-c4ccc5c(c4)CCNC5=O)c(OC4CCNCC4)c3n2)cc1 [Compound 875, 4-(7-(1-oxo-1,2,3,4-tetrahydroisoquinolin-6-yl)-8-(piperidin-4-yloxy)quinazolin-2-ylamino)benzenesulfonamide] | 5 to 10 µM | < 5 µM
CC(C)Cn1cc(-c2ccc3cnc(Nc4ccc(S(N)(=O)=O)cc4)nc3c2OC2CCNCC2)cn1 [Compound 876, 4-(7-(1-isobutyl-1H-pyrazol-4-yl)-8-(piperidin-4-yloxy)quinazolin-2-ylamino)benzenesulfonamide] | < 5 µM | < 5 µM
NS(=O)(=O)c1ccc(Nc2ncc3ccc(-c4cnccn4)c(OC4CCNCC4)c3n2)cc1 [Compound 877, 4-(8-(piperidin-4-yloxy)-7-(pyrazin-2-yl)quinazolin-2-ylamino)benzenesulfonamide] | < 5 µM | < 5 µM
NS(=O)(=O)c1ccc(Nc2ncc3ccc(-c4ccc(NCCN5CCCC5)nc4)cc3n2)cc1 [Compound 878, 4-(7-(6-(2-(pyrrolidin-1-yl)ethylamino)pyridin-3-yl)quinazolin-2-ylamino)benzenesulfonamide] | < 5 µM | < 5 µM

Structure (SMILES) | EC50 (A2780 cells) | IC50 (PDK1 kinase)
CN1CCN(c2ccc(-c3ccc4cnc(Nc5ccc(S(N)(=O)=O)cc5)nc4c3)cn2)CC1 [Compound 879, 4-(7-(6-(4-methylpiperazin-1-yl)pyridin-3-yl)quinazolin-2-ylamino)benzenesulfonamide] | < 5 µM | < 5 µM
NS(=O)(=O)c1ccc(Nc2ncc3ccc(-c4ccc(N5CCCC5)nc4)cc3n2)cc1 [Compound 880, 4-(7-(6-(pyrrolidin-1-yl)pyridin-3-yl)quinazolin-2-ylamino)benzenesulfonamide] | 5 to 10 µM | < 5 µM
NS(=O)(=O)c1ccc(Nc2ncc3ccc(-c4ccc(N5CCOCC5)nc4)cc3n2)cc1 [Compound 881] | < 5 µM | < 5 µM
CN1CCN(c2cc(-c3ccc4cnc(Nc5ccc(S(N)(=O)=O)cc5)nc4c3)ccn2)CC1 [Compound 882, 4-(7-(2-(4-methylpiperazin-1-yl)pyridin-4-yl)quinazolin-2-ylamino)benzenesulfonamide] | < 5 µM | < 5 µM
CC(C)CCn1cc(-c2ccc3cnc(Nc4ccc(S(N)(=O)=O)cc4)nc3c2)cn1 [Compound 883, 4-(7-(1-isopentyl-1H-pyrazol-4-yl)quinazolin-2-ylamino)benzenesulfonamide] | < 5 µM | < 5 µM
NC(=O)c1ccc(-c2cc(F)cc3cnc(Nc4ccc(S(N)(=O)=O)cc4)nc23)cc1 [Compound 886, 4-(6-fluoro-2-(4-sulfamoylphenylamino)quinazolin-8-yl)benzamide] | 5 to 10 µM | < 5 µM
NS(=O)(=O)c1ccc(Nc2ncc3cccc(-c4ccc5c(c4)CCNC5=O)c3n2)cc1 [Compound 887, 4-(8-(1-oxo-1,2,3,4-tetrahydroisoquinolin-6-yl)quinazolin-2-ylamino)benzenesulfonamide] | 5 to 10 µM | < 5 µM
NS(=O)(=O)c1ccc(Nc2ncc3cc(F)cc(-c4ccc(N5CCNC(=O)C5)nc4)c3n2)cc1 [Compound 889, 4-(6-fluoro-8-(6-(3-oxopiperazin-1-yl)pyridin-3-yl)quinazolin-2-ylamino)benzenesulfonamide] | < 5 µM | < 5 µM
NS(=O)(=O)c1ccc(Nc2ncc3cc(F)cc(-c4ccc(N5CCCC5)nc4)c3n2)cc1 [Compound 890, 4-(6-fluoro-8-(6-(pyrrolidin-1-yl)pyridin-3-yl)quinazolin-2-ylamino)benzenesulfonamide] | 5 to 10 µM | < 5 µM
CC(=O)NCCNc1ccc(-c2cc(F)cc3cnc(Nc4ccc(S(N)(=O)=O)cc4)nc23)cn1 [Compound 891, N-(2-(5-(6-fluoro-2-(4-sulfamoylphenylamino)quinazolin-8-yl)pyridin-2-ylamino)ethyl)acetamide] | < 5 µM | < 5 µM
NS(=O)(=O)c1ccc(Nc2ncc3cccc(Nc4cccnc4)c3n2)cc1 [Compound 895, 4-(8-(pyridin-3-ylamino)quinazolin-2-ylamino)benzenesulfonamide] | 5 to 10 µM | < 5 µM
NS(=O)(=O)c1ccc(Nc2ncc3cccc(CN4CCNC(=O)C4)c3n2)cc1 [Compound 896, 4-(8-((3-oxopiperazin-1-yl)methyl)quinazolin-2-ylamino)benzenesulfonamide] | < 5 µM | < 5 µM
CC(C)NCc1cccc2cnc(Nc3ccc(S(N)(=O)=O)cc3)nc12 [Compound 897, 4-(8-((isopropylamino)methyl)quinazolin-2-ylamino)benzenesulfonamide] | < 5 µM | < 5 µM
Cn1cc(-c2ccc3cnc(Nc4ccc(S(N)(=O)=O)cc4)nc3c2-c2cnn(C)c2)cn1 [Compound 898, 4-(7,8-bis(1-methyl-1H-pyrazol-4-yl)quinazolin-2-ylamino)benzenesulfonamide] | < 5 µM | < 5 µM
NS(=O)(=O)c1ccc(Nc2ncc3ccc(-c4cccnc4)c(-c4cccnc4)c3n2)cc1 [Compound 899, 4-(7,8-di(pyridin-3-yl)quinazolin-2-ylamino)benzenesulfonamide] | < 5 µM | < 5 µM
Nc1ccc(-c2ccc3cnc(Nc4ccc(S(N)(=O)=O)cc4)nc3c2-c2ccc(N)nc2)cn1 [Compound 900, 4-(7,8-bis(6-aminopyridin-3-yl)quinazolin-2-ylamino)benzenesulfonamide] | 5 to 10 µM | < 5 µM
